Assay results from ChEMBL document CHEMBL1201862, “PubChem BioAssay data set” (2004).
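Protocol summary: plate cells (96-well), add compound at 5 concentrations, incubate 48 h, interpolate endpoints linearly. GI50 is the concentration that inhibits growth by half.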 Active and inactive are the calls of the source. Rule as the data show it: active = GI50 up to about 1.1 µM and inactive = higher.

Key:
Experiment in all cases: DTP human tumour cell line panel, 48 h
[1] = test system: 786-0
[2] = test system: A498
[3] = test system: A549
[4] = test system: ACHN
[5] = test system: BT-549
[6] = test system: CAKI-1
[7] = test system: CCRF-CEM
[8] = test system: COLO 205
[9] = test system: DU-145
[10] = test system: EKVX
[11] = test system: HCC 2998
[12] = test system: HCT-116
[13] = test system: HCT-15
[14] = test system: HL-60
[15] = test system: HOP-62
[16] = test system: HOP-92
[17] = test system: HT-29
[18] = test system: Hs-578T
[19] = test system: IGROV-1
[20] = test system: K562
[21] = test system: KM12
[22] = test system: LOX IMVI
[23] = test system: M14
[24] = test system: MCF7
[25] = test system: MDA-MB-231
[26] = test system: MDA-N
[27] = test system: MOLT-4
[28] = test system: Malme-3M
[29] = test system: NCI-H226
[30] = test system: NCI-H23
[31] = test system: NCI-H460
[32] = test system: NCI-H522
[33] = test system: NCI/ADR-RES
[34] = test system: OVCAR-3
[35] = test system: OVCAR-4
[36] = test system: OVCAR-5
[37] = test system: OVCAR-8
[38] = test system: PC-3
[39] = test system: RPMI-8226
[40] = test system: RXF 393
[41] = test system: SF-268
[42] = test system: SF-295
[43] = test system: SK-MEL-28
[44] = test system: SK-MEL-2
[45] = test system: SK-MEL-5
[46] = test system: SK-OV-3
[47] = test system: SN12C
[48] = test system: SNB-19
[49] = test system: SNB-75
[50] = test system: SR
[51] = test system: SW-620
[52] = test system: T47D
[53] = test system: TK-10
[54] = test system: U-251
[55] = test system: UACC-257
[56] = test system: UACC-62
[57] = test system: UO-31
[58] = test system: MDA-MB-435
[59] = test system: SF-539

O=c1c2c3c(sc2nc(CN2CCNCC2)n1-c1ccccc1)CCCC3
GI50 [1]: > 100 µM (inactive)
GI50 [2]: > 100 µM (inactive)
GI50 [3]: > 100 µM (inactive)
GI50 [4]: > 100 µM (inactive)
GI50 [5]: > 100 µM (inactive)
GI50 [6]: 90.8 µM (inactive)
GI50 [7]: > 100 µM (inactive)
GI50 [8]: > 100 µM (inactive)
GI50 [9]: > 100 µM (inactive)
GI50 [10]: > 100 µM (inactive)
GI50 [11]: > 100 µM (inactive)
GI50 [12]: 53.3 µM (inactive)
GI50 [13]: > 100 µM
GI50 [14]: > 100 µM (inactive)
GI50 [15]: > 100 µM (inactive)
GI50 [16]: > 100 µM (inactive)
GI50 [17]: 35.9 µM (inactive)
GI50 [18]: > 100 µM (inactive)
GI50 [19]: > 100 µM (inactive)
GI50 [20]: > 100 µM (inactive)
GI50 [21]: > 100 µM (inactive)
GI50 [22]: > 100 µM (inactive)
GI50 [23]: > 100 µM (inactive)
GI50 [24]: > 100 µM (inactive)
GI50 [25]: > 100 µM (inactive)
GI50 [26]: 89.1 µM (inactive)
GI50 [27]: > 100 µM (inactive)
GI50 [28]: > 100 µM (inactive)
GI50 [29]: > 100 µM (inactive)
GI50 [30]: > 100 µM (inactive)
GI50 [31]: > 100 µM (inactive)
GI50 [32]: > 100 µM (inactive)
GI50 [33]: > 100 µM (inactive)
GI50 [34]: > 100 µM (inactive)
GI50 [35]: 22.8 µM (inactive)
GI50 [36]: > 100 µM (inactive)
GI50 [37]: > 100 µM (inactive)
GI50 [38]: > 100 µM (inactive)
GI50 [39]: > 100 µM (inactive)
GI50 [40]: > 100 µM (inactive)
GI50 [41]: 65.5 µM (inactive)
GI50 [42]: > 100 µM (inactive)
GI50 [43]: > 100 µM (inactive)
GI50 [44]: > 100 µM (inactive)
GI50 [45]: > 100 µM (inactive)
GI50 [46]: > 100 µM (inactive)
GI50 [47]: > 100 µM (inactive)
GI50 [48]: > 100 µM (inactive)
GI50 [49]: 34.8 µM (inactive)
GI50 [50]: > 100 µM (inactive)
GI50 [51]: > 100 µM (inactive)
GI50 [52]: 99.5 µM (inactive)
GI50 [53]: > 100 µM (inactive)
GI50 [54]: > 100 µM (inactive)
GI50 [55]: > 100 µM (inactive)
GI50 [56]: > 100 µM (inactive)
GI50 [57]: 54.2 µM (inactive)

CN(C)c1ccc(C2SCC(=O)N2NS(=O)(=O)c2cccc(C(=O)O)c2)cc1 (configuration not stated)
GI50 [1]: 17.2 µM (inactive)
GI50 [3]: 99.3 µM (inactive)
GI50 [4]: > 100 µM (inactive)
GI50 [5]: > 100 µM (inactive)
GI50 [6]: > 100 µM (inactive)
GI50 [7]: 0.731 µM (active)
GI50 [8]: > 100 µM (inactive)
GI50 [9]: > 100 µM (inactive)
GI50 [10]: > 100 µM (inactive)
GI50 [11]: > 100 µM (inactive)
GI50 [12]: > 100 µM (inactive)
GI50 [13]: 76.9 µM
GI50 [14]: 16.3 µM (inactive)
GI50 [15]: > 100 µM (inactive)
GI50 [16]: > 100 µM (inactive)
GI50 [17]: > 100 µM (inactive)
GI50 [18]: > 100 µM (inactive)
GI50 [19]: > 100 µM (inactive)
GI50 [20]: 35.6 µM (inactive)
GI50 [21]: > 100 µM (inactive)
GI50 [22]: > 100 µM (inactive)
GI50 [23]: > 100 µM (inactive)
GI50 [24]: 64.9 µM (inactive)
GI50 [25]: > 100 µM (inactive)
GI50 [58]: > 100 µM (inactive)
GI50 [26]: > 100 µM (inactive)
GI50 [27]: 42.8 µM (inactive)
GI50 [28]: 99.8 µM (inactive)
GI50 [29]: 52 µM (inactive)
GI50 [30]: > 100 µM (inactive)
GI50 [31]: 76.2 µM (inactive)
GI50 [32]: 28.2 µM (inactive)
GI50 [34]: > 100 µM (inactive)
GI50 [36]: > 100 µM (inactive)
GI50 [37]: 17.7 µM (inactive)
GI50 [38]: > 100 µM (inactive)
GI50 [39]: 45.9 µM (inactive)
GI50 [40]: > 100 µM (inactive)
GI50 [41]: > 100 µM (inactive)
GI50 [42]: 94 µM (inactive)
GI50 [59]: 46.3 µM (inactive)
GI50 [43]: 97.7 µM (inactive)
GI50 [44]: > 100 µM (inactive)
GI50 [45]: > 100 µM (inactive)
GI50 [46]: > 100 µM (inactive)
GI50 [47]: > 100 µM (inactive)
GI50 [48]: > 100 µM (inactive)
GI50 [49]: > 100 µM (inactive)
GI50 [51]: > 100 µM (inactive)
GI50 [52]: > 100 µM (inactive)
GI50 [53]: > 100 µM (inactive)
GI50 [54]: > 100 µM (inactive)
GI50 [55]: > 100 µM (inactive)
GI50 [56]: > 100 µM (inactive)
GI50 [57]: 72.8 µM (inactive)
